Results: patent US7625913B2, “Pyrazole compounds useful as protein kinase inhibitors” (Vertex Pharmaceuticals Incorporated, priority 2000, dated 2009)
pKi: −log10 of the molar value.

Tests used:
CDK-2/Cyclin A = CDK-2/Cyclin A (Homo sapiens, UniProt P24941); assay: CDK-2 inhibition assay (coupled enzyme assay); assay type: biochemical; details: 25 nM CDK-2/Cyclin A, 30° C.
Method: Compounds were screened in the following manner for their ability to inhibit CDK-2 using a standard coupled enzyme assay (Fox et al (1998) Protein Sci 7, 2249).
To an assay stock buffer solution containing 0.1M HEPES 7.5, 10 mM MgCl2, 1 mM DTT, 25 mM NaCl, 2.5 mM phosphoenolpyruvate, […], 30 mg/ml pyruvate kinase, 10 mg/ml lactate dehydrogenase, 100 mM ATP, and 100 μM peptide ([…], American Peptide, Sunnyvale, Calif.) was added a DMSO solution of a compound of the present invention to a final concentration of 30 μM. The resulting mixture was incubated at 30° C. for 10 min.
The reaction was initiated by the addition of 10 μL of CDK-2/Cyclin A stock solution to give a final concentration of 25 nM in the assay. The rates of reaction were obtained by monitoring absorbance at 340 nm over a 5-minute read time at 30° C. using a BioRad Ultramark plate reader (Hercules, Calif.). The Ki values were determined from the rate data as a function of inhibitor concentration.

GSK-3β (AA 1-420) = molecular target: T1, GSK-3β (AA 1-420) (Homo sapiens, UniProt P49841); assay: Ki determination for the inhibition of GSK-3 (coupled enzyme system); assay type: biochemical; details: 20 μM ATP, 300 μM peptide, 20 nM GSK-3β, 30° C.
T1 construct: GSK-3β (AA 1-420)
Method: Reactions were carried out in a solution containing 100 mM HEPES (pH 7.5), 10 mM MgCl2, 25 mM NaCl, 300 μM NADH, 1 mM DTT and 1.5% DMSO. Final substrate concentrations in the assay were 20 μM ATP (Sigma Chemicals, St Louis, Mo.) and 300 μM peptide (HSSPHQS(PO3H2)EDEEE, American Peptide, Sunnyvale, Calif.). Reactions were carried out at 30° C. and 20 nM GSK-3β. Final concentrations of the components of the coupled enzyme system were 2.5 mM phosphoenolpyruvate, 300 μM NADH, 30 μg/ml pyruvate kinase and 10 μg/ml lactate dehydrogenase.
An assay stock buffer solution was prepared containing all of the reagents listed above with the exception of ATP and the test compound of interest. […] The reaction was initiated by the addition of 20 μl of ATP (final concentration 20 μM). Rates of reaction were obtained using a Molecular Devices Spectramax plate reader (Sunnyvale, Calif.) over 10 min at 30° C. The Ki values were determined from the rate data as a function of inhibitor concentration.

Aurora-2 = molecular target: T2, Aurora-2 (Homo sapiens, UniProt O14965); assay: Ki determination for the inhibition of Aurora-2 (coupled enzyme assay); assay type: biochemical; details: 70 nM Aurora-2, peptide LRRASLG, 30° C.
T2 sequence (O14965 1-403): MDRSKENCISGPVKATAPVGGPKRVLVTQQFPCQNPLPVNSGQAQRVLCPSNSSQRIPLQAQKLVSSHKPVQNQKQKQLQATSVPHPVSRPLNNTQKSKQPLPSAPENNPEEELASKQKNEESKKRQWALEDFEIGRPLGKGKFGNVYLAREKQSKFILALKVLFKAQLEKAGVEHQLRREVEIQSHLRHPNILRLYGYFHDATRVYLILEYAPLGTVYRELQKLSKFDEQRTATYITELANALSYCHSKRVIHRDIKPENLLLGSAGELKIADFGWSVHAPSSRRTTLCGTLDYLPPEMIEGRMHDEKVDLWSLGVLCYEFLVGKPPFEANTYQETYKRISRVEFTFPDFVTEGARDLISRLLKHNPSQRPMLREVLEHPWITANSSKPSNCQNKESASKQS
Method: To an assay stock buffer solution containing 0.1M HEPES 7.5, 10 mM MgCl2, 1 mM DTT, 25 mM NaCl, 2.5 mM phosphoenolpyruvate, […], 30 mg/ml pyruvate kinase, 10 mg/ml lactate dehydrogenase, 40 mM ATP, and 800 μM peptide (LRRASLG, American Peptide, Sunnyvale, Calif.) was added a DMSO solution of a compound of the present invention to a final concentration of 30 μM. The resulting mixture was incubated at 30° C. for 10 min. The reaction was initiated by the addition of 10 μL of Aurora-2 stock solution to give a final concentration of 70 nM in the assay. […] The Ki values were determined from the rate data as a function of inhibitor concentration.

T1 sequence (P49841 whole entry, the tested form may be a part): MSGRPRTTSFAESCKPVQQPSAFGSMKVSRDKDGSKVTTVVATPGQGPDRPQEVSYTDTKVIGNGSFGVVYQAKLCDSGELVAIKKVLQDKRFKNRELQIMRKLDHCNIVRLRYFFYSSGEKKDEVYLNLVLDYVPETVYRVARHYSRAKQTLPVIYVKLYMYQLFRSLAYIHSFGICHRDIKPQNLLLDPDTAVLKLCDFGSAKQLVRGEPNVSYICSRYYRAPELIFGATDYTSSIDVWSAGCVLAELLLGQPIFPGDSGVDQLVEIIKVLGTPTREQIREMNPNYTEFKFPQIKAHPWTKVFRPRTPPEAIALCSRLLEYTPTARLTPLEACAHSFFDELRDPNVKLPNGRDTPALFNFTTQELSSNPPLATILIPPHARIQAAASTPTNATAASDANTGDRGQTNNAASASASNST

**Q.** With `COc1ccc2c(Nc3cc(C)n[nH]3)nc(Sc3ccc(NC(C)=O)cc3)nc2c1` [IIa-40, [2-(4-Acetamidophenylsulfanyl)-7-methoxy-quinazolin-4-yl]-(5-methyl-2H-pyrazol-3-yl)-amine] as the molecule, how does the pKi (CDK-2/Cyclin A) read?
**A.** The pKi was 4.70 to 6.00.

**Q.** And the pKi (GSK-3β (AA 1-420))?
**A.** Its pKi is 5.15 to 6.00.

**Q.** What about the pKi (Aurora-2) of the same molecule?
**A.** Its pKi is greater than 7.00.

**Q.** What about the melting point of the same molecule?
**A.** Its melting point is 291 to 293 °C.
